The target in one experiment is T1, PKG-1α (Homo sapiens, UniProt Q13976).
T1 construct: transfected with an expression plasmid containing a full length WT-PKG-1α cDNA; made in house; host or cells: HEK-293T (methods); the results paragraph b527 says PASMC
T1 sequence (Q13976 2-671): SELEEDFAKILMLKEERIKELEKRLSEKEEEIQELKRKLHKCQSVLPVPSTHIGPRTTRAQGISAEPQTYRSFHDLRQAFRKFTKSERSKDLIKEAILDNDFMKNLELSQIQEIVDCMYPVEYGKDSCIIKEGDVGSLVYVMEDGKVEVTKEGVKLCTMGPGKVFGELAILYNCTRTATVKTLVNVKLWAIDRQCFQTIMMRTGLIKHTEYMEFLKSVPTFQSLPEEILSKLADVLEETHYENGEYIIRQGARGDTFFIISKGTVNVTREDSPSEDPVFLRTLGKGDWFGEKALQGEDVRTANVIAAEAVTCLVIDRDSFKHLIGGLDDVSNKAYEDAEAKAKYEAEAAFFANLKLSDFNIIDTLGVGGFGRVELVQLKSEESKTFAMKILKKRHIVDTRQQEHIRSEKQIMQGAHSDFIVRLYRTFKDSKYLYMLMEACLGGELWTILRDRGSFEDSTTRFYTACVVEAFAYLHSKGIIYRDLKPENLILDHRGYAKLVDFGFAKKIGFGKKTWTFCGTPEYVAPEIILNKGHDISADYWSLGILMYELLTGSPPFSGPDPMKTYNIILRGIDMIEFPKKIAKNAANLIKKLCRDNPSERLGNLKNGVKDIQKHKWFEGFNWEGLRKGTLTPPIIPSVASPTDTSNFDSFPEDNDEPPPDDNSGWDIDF
Description: [3H]cGMP binding assay. The following applies: SIN-1 500 μM 30 min. As to the method:
HEK-293T cells were transiently transfected with either the WT-PKG-1α or the Y247FPKG-1α cDNA using Effectene transfection reagent (Qiagen), according to the manufacturer's instructions. Briefly, the cells were split the day before the transfection to low cell densities (25%) and were transfected 24 h later. After 48 h of transfection, the cells were incubated in DMEM serum free media containing 1% FBS and antibiotics for 4 h and then treated with or without SIN-1 (500 μM), for 30 min. This method produced an approximate 70% transfection efficiency of HEK-293T cells, as measured using green fluorescent protein vectors. […]
The batches of supernatant were pooled, and 2 μg of anti-PKG-1α antibody per mg of protein were added to the extract and rocked at 4° C. […] After 15 min of agitation at 4° C., the beads were pelleted by centrifugation, and the supernatant containing the PKG-1α protein was collected, quantified using Bradford reagent, and stored at −80° C.
To assay the binding of cGMP to WT- and Y247F-PKG-1α the enzymes were saturated with cGMP by incubating 50 μl aliquots of the diluted PKG constructs for 60 min at room temperature with 50 μl of [^3H]cGMP and 150 μl of cGMP-binding assay mixture (25 mM K2HPO4, 25 mM KH2PO4, 1 mM EDTA, pH 6.8, 2M NaCl, 200 μM 3-isobutyl-1-methylxanthine). […] The dissociation constant (Kd) values were determined using GraphPad Prism graphics.

Experiment [1] concerns Pulmonary artery smooth muscle cells (PASMC). Description: PASMC cellular metabolism (alamarBlue assay). Type of experiment: cell-based, lamb. To be noted: SIN-1 500 μM 48 h. As to the method: This was determined via the alamarBlue assay (AbD Serotec, Oxford, UK). The assay is based on the reducing ability of metabolically active cells to convert the active reagent, resazurin, into a fluorescent and colorimetric indicator, resorufin. When added to cell cultures, the oxidized, resazurin enters the cytosol and is converted to the reduced, resorufin in the mitochondria by accepting electrons from NADH, NADPH, FADH2, FMNH2, as well as from the cytochromes. The non-toxic and cell permeable nature of alamarBlue permits the long-term exposure of cells. PASMC were grown on a 10 cm dish to 75% confluence, transfected with WT-PKG-1α or Y247F-PKG-1α cDNA, and incubated at 37° C. for 20 h. The cells were trypsinized and seeded onto a 24-well plate at a density of 20,000 cells per well and grown for an additional 4 h in serum and phenol free DMEM growth medium containing 1% FBS and antibiotics. The cells were then treated with or without SIN-1 (500 μM, 48 h) in the presence of 10% well volume of alamarBlue dye. The color change of the dye was determined at an excitation wavelength of 560 nm and an emission wavelength of 590 nm in a Fluoroskan Ascent plate reader. […] Cellular metabolism was expressed as follows: […]
For orientation: Resazurin is reduced to fluorescent resorufin, in cell work by metabolically active cells.

This is an account of results in patent US9447157B2, “Nitration shielding peptides and methods of use thereof” (Augusta University Research Institute, Inc., priority 2013, dated 2016).

As for “3-morpholinosydnonimine N-ethylcarbamide [SIN-1]”, at PKG-1α, the “Maximal [3H]cGMP binding to WT-PKG-1α” value is on record as “significantly attenuated”. Besides, in experiment [1], the “Metabolism, WT-PKG-1α transfected PASMC” value was “stimulated”.
